# Tests used:
# [1] = test system: CMK; test: AML cell line in vitro proliferation assay; type: cell-based
# Experimental: (§1) Narazaciclib was serially diluted with culture medium to 9 final assay concentrations from 0.01 to 100 μM. The assay was performed with both a negative control (vehicle) and a positive control (Cisplatin) in triplicate. The AML cell lines at log-growth phase were cultured in 96-well plates (black transparent flat bottom 96-well plate, Corning, Cat# 3603, FBS, ExCell Bio., Cat# FND500) in the presence of narazaciclib or Cisplatin at various concentrations for 72 h or 120 h (only for AML-193 cell line), followed by CTG readout according to the manufacturer’s instruction (CellTiter-Glo Luminescent Cell Viability Assay, Promega, Cat# G7573). Viability%=Lumdrug-Lummedium control/Lumcell control-Lummedium control×100%. Lumcell control-Lummedium controlas100%,LumMediumcontrolas0%. Proliferationfold increase=D5-LumNone treated-LumMedium control/D2LumNone treated-LumMedium control
# (§2) Dose–response curves were fitted by a 4-parameter log-logistic model: Inhibition%=Bottom+Top-Bottom/1+10^logEC50-x∗HillSlope where Top and Bottom are the two asymptotes of the sigmoidal curve, EC50 is the relative IC50, concentration x is in log-10 scale and HillSlope is the slope at the EC50 point on the fitted curve. The fitted area under the curve (AUC) was calculated by: Inhibition%=Bottom+Top-Bottom/1+10^logEC50-x∗HillSlope where a represents the log10-transformed minimal concentration and b represents the log10-transformed maximal concentration. An extremely strong positive correlation between the absolute IC50 and AUC is shown in Supplemental Fig. S5.
# [2] = test system: EOL1; test: AML cell line in vitro proliferation assay; type: cell-based
# Experimental: as §1, §2
# [3] = test system: HEL-9217; test: AML cell line in vitro proliferation assay; type: cell-based
# Experimental: as §1, §2
# [4] = test system: HL-60; test: AML cell line in vitro proliferation assay; type: cell-based
# Experimental: as §1, §2
# [5] = test system: HNT34; test: AML cell line in vitro proliferation assay; type: cell-based
# Experimental: as §1, §2
# [6] = test system: KASUMI-6; test: AML cell line in vitro proliferation assay; type: cell-based
# Experimental: as §1, §2
# [7] = test system: ML2; test: AML cell line in vitro proliferation assay; type: cell-based
# Experimental: as §1, §2
# [8] = test system: MOLM-13; test: AML cell line in vitro proliferation assay; type: cell-based
# Experimental: as §1, §2
# [9] = test system: MOLM-16; test: AML cell line in vitro proliferation assay; type: cell-based
# Experimental: as §1, §2
# [10] = test system: MV-4–11; test: AML cell line in vitro proliferation assay; type: cell-based
# Experimental: as §1, §2
# [11] = test system: NB4; test: AML cell line in vitro proliferation assay; type: cell-based
# Experimental: as §1, §2
# [12] = test system: OCI-AML-3; test: AML cell line in vitro proliferation assay; type: cell-based
# Experimental: as §1, §2
# [13] = test system: OCI-AML-5; test: AML cell line in vitro proliferation assay; type: cell-based
# Experimental: as §1, §2
# [14] = test system: PL21; test: AML cell line in vitro proliferation assay; type: cell-based
# Experimental: as §1, §2
# [15] = test system: SKM-1; test: AML cell line in vitro proliferation assay; type: cell-based
# Experimental: as §1, §2
# [16] = test system: AML cell lines; test: In vitro proliferation assay, panel of 33 AML cell lines (summary statements); type: cell-based; settings: a subset of AML lines; read-out: IC50 growth inhibition
# Experimental: as §1, with “Proliferationfold increase=D5-LumNone treated-LumMedium control/D2LumNone treated-LumMedium control” left out
# as §2, with “An extremely strong positive correlation between the absolute IC50 and AUC is shown in Supplemental Fig. S5.” left out
# [17] = biological target: FGFR1 (Homo sapiens, UniProt P11362); test: Additional kinase inhibition panel; type: biochemical
# Sequence of FGFR1 (P11362 22-822): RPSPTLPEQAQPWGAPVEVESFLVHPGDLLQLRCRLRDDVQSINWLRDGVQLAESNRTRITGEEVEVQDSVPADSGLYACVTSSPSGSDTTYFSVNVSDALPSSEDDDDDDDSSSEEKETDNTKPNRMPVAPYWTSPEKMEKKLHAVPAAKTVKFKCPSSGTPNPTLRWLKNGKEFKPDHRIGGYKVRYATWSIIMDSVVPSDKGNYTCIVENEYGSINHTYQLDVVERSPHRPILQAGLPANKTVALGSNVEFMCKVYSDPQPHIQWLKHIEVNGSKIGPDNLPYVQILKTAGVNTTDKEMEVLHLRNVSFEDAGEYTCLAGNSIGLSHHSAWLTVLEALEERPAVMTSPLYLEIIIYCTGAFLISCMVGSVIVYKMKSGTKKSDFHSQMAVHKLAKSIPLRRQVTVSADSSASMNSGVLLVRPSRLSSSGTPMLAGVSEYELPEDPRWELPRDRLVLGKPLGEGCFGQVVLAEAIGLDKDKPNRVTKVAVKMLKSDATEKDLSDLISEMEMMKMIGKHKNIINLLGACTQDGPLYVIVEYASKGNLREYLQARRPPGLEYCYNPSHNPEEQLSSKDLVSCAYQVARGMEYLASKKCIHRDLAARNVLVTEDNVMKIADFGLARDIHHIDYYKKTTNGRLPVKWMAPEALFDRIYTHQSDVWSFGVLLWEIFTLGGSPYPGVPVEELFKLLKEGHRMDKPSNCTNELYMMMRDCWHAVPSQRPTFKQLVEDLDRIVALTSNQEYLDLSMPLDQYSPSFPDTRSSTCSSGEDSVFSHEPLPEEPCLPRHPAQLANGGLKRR
# Excerpt: (§3) Supplement 41598_2024_59650_MOESM2_ESM.docx, table 4: Supplemental Table S4. IC50 of Narazaciclib against additional kinases | column: Narazaciclib (µM); Narazaciclib metabolite (µM)
# [18] = biological target: SIK1 (Homo sapiens, UniProt P57059); test: Additional kinase inhibition panel; type: biochemical
# Sequence of SIK1 (P57059 whole entry): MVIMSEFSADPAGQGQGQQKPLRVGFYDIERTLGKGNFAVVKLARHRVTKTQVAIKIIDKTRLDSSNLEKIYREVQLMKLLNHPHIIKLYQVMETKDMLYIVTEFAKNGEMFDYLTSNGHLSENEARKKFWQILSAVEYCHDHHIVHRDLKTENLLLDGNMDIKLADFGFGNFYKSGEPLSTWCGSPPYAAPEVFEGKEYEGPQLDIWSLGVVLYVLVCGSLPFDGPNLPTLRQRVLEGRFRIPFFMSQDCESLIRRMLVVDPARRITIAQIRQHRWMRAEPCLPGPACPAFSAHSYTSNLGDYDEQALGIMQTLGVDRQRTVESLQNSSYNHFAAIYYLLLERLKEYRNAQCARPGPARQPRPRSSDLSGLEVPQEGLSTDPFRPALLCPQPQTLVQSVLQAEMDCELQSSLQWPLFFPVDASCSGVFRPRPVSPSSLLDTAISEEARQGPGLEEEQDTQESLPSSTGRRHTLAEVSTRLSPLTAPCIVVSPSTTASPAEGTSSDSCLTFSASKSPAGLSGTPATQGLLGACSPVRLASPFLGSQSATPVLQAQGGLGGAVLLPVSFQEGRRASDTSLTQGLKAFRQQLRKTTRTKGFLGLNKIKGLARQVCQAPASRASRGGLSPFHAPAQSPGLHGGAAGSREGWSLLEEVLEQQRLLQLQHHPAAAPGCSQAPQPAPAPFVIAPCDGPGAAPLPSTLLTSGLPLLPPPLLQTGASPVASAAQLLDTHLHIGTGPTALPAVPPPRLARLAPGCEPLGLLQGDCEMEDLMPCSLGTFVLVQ
# Excerpt: as §3
# [19] = biological target: SIK2 (Homo sapiens, UniProt Q9H0K1); test: Additional kinase inhibition panel; type: biochemical
# Sequence of SIK2 (Q9H0K1 whole entry): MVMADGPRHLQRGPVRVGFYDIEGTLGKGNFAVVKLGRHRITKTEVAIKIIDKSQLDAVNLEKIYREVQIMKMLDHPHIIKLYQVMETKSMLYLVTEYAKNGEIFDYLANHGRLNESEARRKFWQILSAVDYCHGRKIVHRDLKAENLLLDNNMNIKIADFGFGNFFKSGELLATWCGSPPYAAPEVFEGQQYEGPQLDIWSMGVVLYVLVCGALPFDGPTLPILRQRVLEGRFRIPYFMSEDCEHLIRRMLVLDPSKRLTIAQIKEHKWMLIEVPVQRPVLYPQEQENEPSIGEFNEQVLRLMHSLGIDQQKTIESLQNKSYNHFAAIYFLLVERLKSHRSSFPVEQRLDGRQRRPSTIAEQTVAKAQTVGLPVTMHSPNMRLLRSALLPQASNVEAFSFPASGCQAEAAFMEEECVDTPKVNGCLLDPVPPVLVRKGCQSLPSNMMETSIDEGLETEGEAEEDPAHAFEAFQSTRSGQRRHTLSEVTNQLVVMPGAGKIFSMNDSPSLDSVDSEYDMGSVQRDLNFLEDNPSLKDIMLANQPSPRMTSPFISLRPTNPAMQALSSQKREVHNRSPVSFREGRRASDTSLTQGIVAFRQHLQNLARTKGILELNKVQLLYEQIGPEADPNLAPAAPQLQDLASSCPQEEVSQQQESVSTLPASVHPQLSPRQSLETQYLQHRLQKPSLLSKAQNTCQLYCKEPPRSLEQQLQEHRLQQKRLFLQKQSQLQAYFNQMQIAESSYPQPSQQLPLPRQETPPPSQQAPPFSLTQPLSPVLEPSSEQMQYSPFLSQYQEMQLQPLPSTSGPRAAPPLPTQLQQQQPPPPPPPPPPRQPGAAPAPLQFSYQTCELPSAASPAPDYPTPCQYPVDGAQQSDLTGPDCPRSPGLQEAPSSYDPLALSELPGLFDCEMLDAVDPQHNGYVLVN
# Excerpt: as §3
# [20] = test system: AM7407 AML-PDX; test: AM7407 systemic AML-PDX model; type: in vivo, NOD/scid mice; settings: AM7407, 100 mg/kg orally every day
# Experimental: For systemic AML-PDX models, the model establishment and narazaciclib pharmacology experiment were performed essentially as described previously. Briefly, 2 × 10^6 AM7407 cells, or 2 × 10^6 AM7577 cells, or 2 × 10^6 AM5512 cells, or 1.65 × 10^6 AM8096 cells were inoculated intravenously into 4- to 5-week-old female NOD/scid mice for AML development. Engraftment was confirmed by the presence of circulating human CD45+ cells (anti-human CD45 antibody, Cat. 304038, Biolegend) in peripheral blood. Mice with successful engraftment of AML-PDX were randomized into different treatment groups (N = 6) and received their designated treatments. Narazaciclib was administrated orally or intraperitoneally at 10 mg/kg, or 30 mg/kg, or 100 mg/kg every day throughout the study, while Cytarabine was administrated intraperitoneally at 3 mg/kg every day. Following the initiation of designated treatments, leukemic burden was monitored by flow cytometry with anti-human CD45 antibody on the peripheral blood every week as well as on the peripheral blood, bone marrow cells and splenocytes of mice at sacrifice. Mice were sacrifice once the followings are observed: body weight loss over 20%, reduced motility and activity, labored breathing, ruffled coat, hunched back and severe dehydration.
smiles,measurement,setting,value
"CN1CCN(c2ccc(Nc3ncc4cc(C#N)c(=O)n(C5CCCC5)c4n3)cc2)CC1 [Narazaciclib, narazaciclib]",Classification by AUC,[1],"Sensitive (AUC ≤ 2.4, sensitive)"
same,IC50,"[1]; Homo sapiens, 72 h, CTG",1650 nM
same,AUC,[1]; area under the dose–response curve,2.347
same,Classification by AUC,[2]; EOL1,"Sensitive (AUC ≤ 2.4, sensitive)"
same,AUC,"[2]; EOL1, area under the dose–response curve",0.5917
same,IC50,"[2]; Homo sapiens, EOL1, 72 h, CTG",35 nM
same,Classification by AUC,[3]; HEL-9217,"Insensitive (AUC ≥ 2.8, insensitive)"
same,AUC,"[3]; HEL-9217, area under the dose–response curve",3.209
same,IC50,"[3]; Homo sapiens, HEL 92.1.7, HEL-9217, 72 h, CTG",15700 nM
same,Classification by AUC,[4]; HL-60,"Insensitive (AUC ≥ 2.8, insensitive)"
same,AUC,"[4]; HL-60, area under the dose–response curve",2.836
same,IC50,"[4]; Homo sapiens, HL-60, 72 h, CTG",6140 nM
same,Classification by AUC,[5]; HNT34,"Sensitive (AUC ≤ 2.4, sensitive)"
same,AUC,"[5]; HNT34, area under the dose–response curve",2.068
same,IC50,"[5]; HNT-34, HNT34, 72 h, CTG",1480 nM
same,Classification by AUC,[6]; KASUMI-6,"Sensitive (AUC ≤ 2.4, sensitive)"
same,IC50,"[6]; KASUMI-6, 72 h, CTG",1480 nM
same,AUC,"[6]; KASUMI-6, area under the dose–response curve",2.251
same,IC50,"[7]; Homo sapiens, ML-2, ML2, 72 h, CTG",3600 nM
same,Classification by AUC,[7]; ML2,"Intermediate (2.4 < AUC < 2.8, intermediate)"
same,AUC,"[7]; ML2, area under the dose–response curve",2.633
same,IC50,"[8]; Homo sapiens, MOLM-13, 72 h, CTG",103 nM
same,Classification by AUC,[8]; MOLM-13,"Sensitive (AUC ≤ 2.4, sensitive)"
same,AUC,"[8]; MOLM-13, area under the dose–response curve",1.068
same,IC50,"[9]; MOLM16, MOLM-16, 72 h, CTG",4770 nM
same,Classification by AUC,[9]; MOLM-16,"Insensitive (AUC ≥ 2.8, insensitive)"
same,AUC,"[9]; MOLM-16, area under the dose–response curve",2.992
same,IC50,"[10]; Homo sapiens, MV4-11, MV-4–11, 72 h, CTG",264 nM
same,Classification by AUC,[10]; MV-4–11,"Sensitive (AUC ≤ 2.4, sensitive)"
same,AUC,"[10]; MV-4–11, area under the dose–response curve",1.454
same,IC50,"[11]; Homo sapiens, NB-4, NB4, 72 h, CTG",3280 nM
same,Classification by AUC,[11]; NB4,"Insensitive (AUC ≥ 2.8, insensitive)"
same,AUC,"[11]; NB4, area under the dose–response curve",2.865
same,IC50,"[12]; Homo sapiens, OCI-AML-3, 72 h, CTG",2940 nM
same,Classification by AUC,[12]; OCI-AML-3,"Insensitive (AUC ≥ 2.8, insensitive)"
same,AUC,"[12]; OCI-AML-3, area under the dose–response curve",2.863
same,IC50,"[13]; Homo sapiens, OCI-AML-5, 72 h, CTG",370 nM
same,Classification by AUC,[13]; OCI-AML-5,"Sensitive (AUC ≤ 2.4, sensitive)"
same,AUC,"[13]; OCI-AML-5, area under the dose–response curve",1.636
same,Classification by AUC,[14]; PL21,"Sensitive (AUC ≤ 2.4, sensitive)"
same,AUC,"[14]; PL21, area under the dose–response curve",2.37
same,IC50,"[14]; PL-21, PL21, 72 h, CTG",3400 nM
same,IC50,"[15]; Homo sapiens, SKM-1, 72 h, CTG",1940 nM
same,Classification by AUC,[15]; SKM-1,"Sensitive (AUC ≤ 2.4, sensitive)"
same,AUC,"[15]; SKM-1, area under the dose–response curve",2.323
same,IC50,[16],< 1500 nM
same,IC50,[17],38 nM
same,IC50,[18],34 nM
same,IC50,[19],2 nM
same,response of model,[20],did not respond

# — PMC11031590, “Narazaciclib, a novel multi-kinase inhibitor with potent activity against CSF1R, FLT3 and CDK6, shows strong anti-AML activity in defined preclinical models” (Scientific Reports, 2024)
